18 compounds from PubChem BioAssay (NCI) can be followed below.

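All cell lines were grown in 96-well plates and treated with compound for 48 hours. TGI: total growth inhibition.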 A value given as a limit tells only on which side of the number the result lay.

Test systems include A498 renal; ACHN renal; HOP-92 NSCLC; HT29 colon; MOLT-4 leukemia; NCI-H460 lung; RXF 393 renal; SF-295 CNS; U251 CNS; UO-31 renal.
Common to all, as to experiment: NCI tumour cell line growth inhibition, 48 h

As for `C=CC(Br)(CBr)CCC(Br)C(C)C` (stereo not given), the TGI worked out at 32.8 µM in the assay with A498 renal; 20.6 µM with ACHN renal; 23.2 µM with HOP-92 NSCLC; 8.4 µM with HT29 colon; 5.21 µM in the assay on MOLT-4 leukemia; 18.4 µM in the assay with NCI-H460 lung. Moreover, the TGI with RXF 393 renal was 20.3 µM; with SF-295 CNS it was 8.44 µM; in the assay on U251 CNS, 12.6 µM; with UO-31 renal it was 26.3 µM.
`O=C1C[C@H](c2ccc(O)c(O)c2)Oc2cc(O)cc(O)c21`: the TGI with A498 renal, in the assay with ACHN renal, in the assay on HOP-92 NSCLC, with HT29 colon, with MOLT-4 leukemia and with NCI-H460 lung was more than 100 µM each time. Besides, the TGI in the assay with RXF 393 renal, with SF-295 CNS, with U251 CNS and in the assay with UO-31 renal was more than 100 µM each time.
Regarding `COC(=O)[C@H](CCSC)NC(=O)c1ccc(CNC(=O)/C(C)=C/c2ccccc2)cc1`, the TGI in the assay on A498 renal was more than 100 µM; with ACHN renal, more than 100 µM; in the assay on HOP-92 NSCLC it was 72.2 µM; in the assay with HT29 colon it was 42.7 µM; in the assay with MOLT-4 leukemia, more than 100 µM; with NCI-H460 lung it was more than 100 µM. Further, the TGI is 51.1 µM in the assay with RXF 393 renal, more than 100 µM in the assay on SF-295 CNS, more than 100 µM in the assay on U251 CNS and more than 100 µM in the assay on UO-31 renal.
As to `COc1cccc(-c2cc(=O)c3cc(Cl)cnc3[nH]2)c1`, the TGI in the assay with A498 renal is more than 100 µM; in the assay with ACHN renal, 55.4 µM; in the assay with HOP-92 NSCLC it was 63.9 µM; in the assay with HT29 colon it was 13.8 µM; in the assay with MOLT-4 leukemia, 28.3 µM; with NCI-H460 lung, more than 100 µM. Further, the TGI with RXF 393 renal is more than 100 µM; in the assay on SF-295 CNS, 13 µM; in the assay on U251 CNS it was 23.5 µM; in the assay on UO-31 renal it was more than 62 µM.
For the compound `C=CCC(CNC(=O)OCc1ccccc1)OC(=O)OCc1ccccc1` (stereo not given), the TGI with A498 renal, in the assay with ACHN renal, in the assay on HOP-92 NSCLC, with HT29 colon, with MOLT-4 leukemia and with NCI-H460 lung was more than 100 µM throughout. Moreover, the TGI in the assay on RXF 393 renal, with SF-295 CNS, with U251 CNS and in the assay on UO-31 renal was more than 100 µM in each case.
On to `CC1CN=C(c2ccc(COc3ccc(C4=NCC(C)N4)cc3)cc2)N1` (stereo not given), for which the TGI in the assay on A498 renal, with ACHN renal, in the assay on HOP-92 NSCLC, in the assay with HT29 colon, with MOLT-4 leukemia and in the assay on NCI-H460 lung was more than 100 µM in each case. Moreover, the TGI with RXF 393 renal, in the assay on SF-295 CNS, in the assay on U251 CNS and with UO-31 renal was more than 100 µM in each case.
For the compound `Nc1ccc(-c2nc3ccccc3s2)cc1Br`, the TGI with A498 renal is more than 32.5 µM; with ACHN renal, more than 100 µM; in the assay on HOP-92 NSCLC, more than 100 µM; with HT29 colon, more than 100 µM; in the assay on MOLT-4 leukemia it was more than 100 µM; in the assay with NCI-H460 lung, more than 100 µM. In addition, the TGI with RXF 393 renal, with SF-295 CNS, in the assay on U251 CNS and with UO-31 renal was more than 100 µM each time.
For the compound `CC(=O)n1ccc2c(Cl)ncnc21`, the TGI in the assay with A498 renal, in the assay with ACHN renal, in the assay on HOP-92 NSCLC, with HT29 colon, with MOLT-4 leukemia and in the assay with NCI-H460 lung was more than 100 µM in each case. Also, the TGI in the assay with RXF 393 renal, in the assay on SF-295 CNS, with U251 CNS and with UO-31 renal was more than 100 µM in each case.
For `N=C(c1cccs1)C1(N2CCCCC2)CCCCC1`, the TGI worked out at 34 µM with A498 renal; 30.5 µM in the assay with ACHN renal; 37.5 µM in the assay on HOP-92 NSCLC; 34.5 µM with HT29 colon; 30.9 µM in the assay on MOLT-4 leukemia; 30 µM in the assay with NCI-H460 lung. Moreover, the TGI came out at 29.5 µM in the assay on RXF 393 renal, 39.7 µM in the assay with SF-295 CNS, 30 µM in the assay with U251 CNS and 30.5 µM with UO-31 renal.
On to `CN(C)CCNc1nc2c(no[n+]2[O-])c2ccccc12`, for which the TGI was 31.6 µM with A498 renal; 40.4 µM in the assay on ACHN renal; 45.1 µM in the assay with HOP-92 NSCLC; more than 100 µM with HT29 colon; 95.8 µM in the assay on MOLT-4 leukemia; more than 100 µM in the assay on NCI-H460 lung. In addition, the TGI in the assay on RXF 393 renal came out at 38.6 µM; in the assay with SF-295 CNS it was 81.9 µM; in the assay on U251 CNS it was 83.8 µM; with UO-31 renal it was 49.1 µM.
On to `OC1c2ccccc2C(O)C2OC12` (stereo not given), for which the TGI with A498 renal, in the assay with ACHN renal, in the assay with HOP-92 NSCLC, with HT29 colon, in the assay with MOLT-4 leukemia and with NCI-H460 lung was more than 100 µM throughout. The TGI in the assay with RXF 393 renal, with SF-295 CNS, in the assay with U251 CNS and with UO-31 renal was more than 100 µM throughout.
With `CC1(C)CC[C@]2(C(=O)O)[C@H](O)C[C@]3(C)C(=CC[C@@H]4[C@@]5(C)CC[C@H](OC6OC(C(=O)O)C(O)C(O)C6O)C(C)(C)[C@@H]5CC[C@]43C)[C@@H]2C1` (stereo not given in full), the TGI with A498 renal was 37.4 µM; in the assay on ACHN renal, more than 100 µM; with HOP-92 NSCLC, 39.2 µM; with HT29 colon, more than 100 µM; in the assay on MOLT-4 leukemia, more than 100 µM; in the assay on NCI-H460 lung, more than 100 µM. Further, the TGI was 81.6 µM with RXF 393 renal, more than 100 µM in the assay on SF-295 CNS, more than 100 µM in the assay with U251 CNS and 32 µM in the assay on UO-31 renal.
As for `C=C1c2nc3ccccc3n2C=C(c2ccc(OC)cc2)N1c1ccc(OCCN2CCOCC2)cc1`, the TGI in the assay with A498 renal is more than 100 µM; with ACHN renal, more than 100 µM; with HOP-92 NSCLC it was more than 100 µM; in the assay on HT29 colon, more than 100 µM; in the assay with MOLT-4 leukemia it was more than 100 µM; in the assay with NCI-H460 lung it was more than 49.9 µM. In addition, the TGI in the assay with RXF 393 renal, in the assay with SF-295 CNS, in the assay with U251 CNS and in the assay with UO-31 renal was more than 100 µM throughout.
For `CC1=CC(=O)/C(=C/n2c(=S)[nH]c3ccccc32)C(=O)O1`, the TGI in the assay on A498 renal, with ACHN renal, in the assay with HOP-92 NSCLC, in the assay with HT29 colon, in the assay on MOLT-4 leukemia and in the assay on NCI-H460 lung was more than 100 µM throughout. In addition, the TGI in the assay on RXF 393 renal, in the assay with SF-295 CNS, in the assay with U251 CNS and in the assay with UO-31 renal was more than 100 µM in each case.
With `CC(=O)N(CN1C(=O)CCC1C(=O)O)c1ccccc1Cl` (stereo not given), the TGI with A498 renal, with ACHN renal, with HOP-92 NSCLC, in the assay on HT29 colon, in the assay with MOLT-4 leukemia and with NCI-H460 lung was more than 100 µM each time. The TGI with RXF 393 renal, in the assay on SF-295 CNS, with U251 CNS and in the assay with UO-31 renal was more than 100 µM throughout.
Consider `Cc1nc2c(=O)[nH]c3ccc(Cl)cc3c2o1`, for which the TGI with A498 renal, in the assay on ACHN renal, in the assay with HOP-92 NSCLC, with HT29 colon, in the assay with MOLT-4 leukemia and in the assay on NCI-H460 lung was more than 100 µM each time. For the same compound, the TGI in the assay on RXF 393 renal, in the assay on SF-295 CNS, in the assay with U251 CNS and with UO-31 renal was more than 100 µM throughout.
`CCOP(=O)(OCC)C(Nc1ccc(F)cc1)c1ccccc1` (stereo not given): the TGI in the assay with A498 renal, in the assay with ACHN renal, in the assay on HOP-92 NSCLC, in the assay on HT29 colon, with MOLT-4 leukemia and with NCI-H460 lung was more than 100 µM each time. Further, the TGI in the assay on RXF 393 renal, with SF-295 CNS, in the assay with U251 CNS and in the assay on UO-31 renal was more than 100 µM throughout.
As to `OC(CN1CCCCC1)c1ccc(/C=C/c2ccc(Cl)cc2)cc1` (stereo not given), the TGI in the assay on A498 renal, with ACHN renal, in the assay on HOP-92 NSCLC, with HT29 colon, with MOLT-4 leukemia and with NCI-H460 lung was more than 100 µM in each case. The TGI in the assay with RXF 393 renal, in the assay with SF-295 CNS, with U251 CNS and in the assay on UO-31 renal was more than 100 µM in each case.
